Values quoted from earlier work as cited in PMC13575890, “Investigating substituted phenylacetamide ligands in the D4R extended binding pocket” (Bioorganic & medicinal chemistry letters, 2026).

Key:
human D3R = target: T1, human D3R (Homo sapiens, UniProt P35462); set-up: method as in PMID 30883109; conditions: membranes from HEK 293 cells stably expressing hD3R; previously reported compounds; read-out: Ki (nM) ± SEM [3H]N-methylspiperone D3R
T1 construct: expressed in transfected cells

human D4R = target: T2, human D4R (Homo sapiens, UniProt P21917); set-up: method as in PMID 30883109; conditions: membranes from HEK 293 cells stably expressing hD4R; previously reported compounds; read-out: Ki (nM) ± SEM [3H]N-methylspiperone D4R
T2 construct: expressed in transfected cells
T2 sequence (P21917 1-419): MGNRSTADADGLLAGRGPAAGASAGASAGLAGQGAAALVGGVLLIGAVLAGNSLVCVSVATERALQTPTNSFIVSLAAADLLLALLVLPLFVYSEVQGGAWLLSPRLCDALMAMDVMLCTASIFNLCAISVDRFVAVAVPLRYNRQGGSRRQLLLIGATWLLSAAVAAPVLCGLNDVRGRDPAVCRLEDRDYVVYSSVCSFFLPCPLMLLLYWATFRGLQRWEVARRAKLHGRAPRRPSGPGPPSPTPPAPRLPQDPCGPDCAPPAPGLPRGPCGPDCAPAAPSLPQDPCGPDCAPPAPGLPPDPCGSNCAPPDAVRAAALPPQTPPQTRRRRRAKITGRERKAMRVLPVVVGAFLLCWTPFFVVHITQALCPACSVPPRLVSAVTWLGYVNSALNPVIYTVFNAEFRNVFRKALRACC

T1 sequence (P35462 whole entry): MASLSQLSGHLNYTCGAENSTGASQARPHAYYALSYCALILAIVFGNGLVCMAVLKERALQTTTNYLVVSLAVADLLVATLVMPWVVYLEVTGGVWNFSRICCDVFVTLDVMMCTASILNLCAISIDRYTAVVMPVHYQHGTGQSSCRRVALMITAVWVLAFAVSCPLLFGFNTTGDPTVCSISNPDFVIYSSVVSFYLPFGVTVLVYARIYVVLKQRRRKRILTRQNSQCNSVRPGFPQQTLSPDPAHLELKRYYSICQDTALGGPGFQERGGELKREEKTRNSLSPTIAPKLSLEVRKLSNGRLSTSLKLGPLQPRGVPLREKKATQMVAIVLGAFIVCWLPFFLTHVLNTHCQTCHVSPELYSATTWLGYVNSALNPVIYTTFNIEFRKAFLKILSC

Row | Structure (SMILES) | Ki (human D3R) [nM] | Ki (human D4R) [nM]
1 | Cc1cccc(NC(=O)CN2CCN(c3ccccn3)CC2)c1 [Compound 2] | > 50000 | 75.1 ± 0.7
2 | CCc1cccc(NC(=O)CN2CCN(c3ccccn3)CC2)c1 [Compound 3] | – | 66.6 ± 1.8
